Where two headings read alike, the source gives them in different places.
Assays:
[1] = Pharmacokinetic experiment in BALB/c mice; assay type: in vivo; settings: for AUC(0-t) / clearance / half-life / Vd / Tmax / bioavailability: male, mouse, plasma; for Vd: read-out: Vdss
Description: BALB/c mice (male, 20 to 30 g, fasting)
Pharmacokinetic characteristics of the compounds in rodent after intravenous or oral administration were determined by standard protocols. In the experiment, the compound was formulated into a clear solution, and administered to mice by single intravenous injection or oral administration. The intravenous injection vehicle was a mixed vehicle of 500 dimethyl sulfoxide and 9500 (3000 aqueous sulfobutylether cyclodextrin solution). The oral vehicle is a solution of 0.50% hydroxypropylmethylcellulose and 0.10% polysorbate 80 in water. Whole blood samples within 24 hours were collected, and the supernatants were separated to obtain plasma samples. Quantitative analysis of plasma concentration was carried out by LC-MS/MS analysis method, and the pharmacokinetic parameters, such as peak concentration (Cmax), clearance (Cl), half-life (T1/2), volume of distribution (Vdss) and area under the drug-time curve (AUC), were calculated.

[2] = Pharmacokinetic experiment in beagle dogs; assay type: in vivo; parameters: clearance: unit not given here; settings: for Vd: read-out: Vdss
Description: Beagle dogs (male, 9 to 11 kg)
Pharmacokinetic characteristics of the compounds in beagle dogs after intravenous or oral administration were determined by standard protocols. In the experiment, the compound was formulated into a clear solution, and administered to beagle dogs by single intravenous injection or oral administration. The intravenous injection vehicle was a mixed vehicle of 5% dimethyl sulfoxide and 95% (28% aqueous hydroxypropyl beta cyclodextrin solution). The oral vehicle is a solution of 0.5% hydroxypropylmethylcellulose and 0.1% polysorbate 80 in water. Whole blood samples within 24 hours were collected, and the supernatants were separated to obtain plasma samples. The sample was centrifuged to obtain the supernatant, to which an equal volume of water was added. The resulting solution was centrifuged to obtain the supernatant, which was injected into the analysis machine. Quantitative analysis of plasma concentration was carried out by LC-MS/MS analysis method, and the pharmacokinetic parameters, such as peak concentration (Cmax), clearance (Cl), half-life (T1/2), volume of distribution (Vdss) and area under the drug-time curve (AUC), were calculated.

[3] = tested on: neutrophil elastase (NE) downstream of CatC; assay: Target binding model in C57BL/6 mice: NE protease activity in bone marrow; assay type: in vivo; settings: 3 mg/kg PO, 8 days, bone marrow cell lysate, female C57BL/6 mice
Description: 1. Experimental protocol: In order to investigate the inhibitory effect of the compounds on the activity of neutrophil elastase (hereinafter referred to as NE) downstream of CatC in neutrophil, female C57BL/6 mice were administered according to the following table:
2. Experimental procedures: The compound or vehicle control was administered continuously for 8 days. On Day 1 to 7, the compound or vehicle control was administered twice a day with an administration interval of 6 hours. On Day 8, the test material was collected one hour after the first administration. […] The sample was washed once with Dulbecco's phosphate buffer, centrifuged at 400 g for 5 minutes and counted. […] The supernatant was stored at −80° C. until protease activity was determined. The protease activity in the cell lysates of each group was determined using the NE protease activity detection kit (Sigma-Aldrich MAK246). 7.5 μL of 3× diluted bone marrow cell lysate or 7.5 μL of double-diluted NE standard and 7.5 μL of 25× diluted substrate were added to a 384-well plate, and the NE protease activity was immediately monitored in real-time at Ex 380 nm and Em 500 nm for 30 minutes. The RFU within the linear reaction time was determined, and the NE protease activity (ng/ml) in the sample was calibrated by the standard curve.

[4] = target: rhCatC (Homo sapiens (Human), UniProt P53634); assay: In vitro enzyme activity experiment of rhCatC (AMC fluorescence assay); assay type: biochemical; settings: rhCatC enzyme, substrate H-Gly-Arg-AMC; read-out: Biological activity IC50
rhCatC, sequence (P53634 25-134): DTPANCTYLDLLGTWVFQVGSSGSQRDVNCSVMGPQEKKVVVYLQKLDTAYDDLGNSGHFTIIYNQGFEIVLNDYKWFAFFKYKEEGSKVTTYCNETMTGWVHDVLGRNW
rhCatC, sequence (P53634 231-394): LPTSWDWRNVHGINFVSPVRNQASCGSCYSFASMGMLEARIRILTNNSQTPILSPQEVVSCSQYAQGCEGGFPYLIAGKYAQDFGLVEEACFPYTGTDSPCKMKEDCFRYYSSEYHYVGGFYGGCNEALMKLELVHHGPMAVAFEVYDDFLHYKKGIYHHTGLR
rhCatC, sequence (P53634 395-463): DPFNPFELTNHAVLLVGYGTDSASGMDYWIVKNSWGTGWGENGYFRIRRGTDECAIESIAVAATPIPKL
Description: The in vitro inhibitory effect of compounds and positive control on rhCatC enzyme activity was evaluated by AMC fluorescence assay. rhCatC can catalyze the reaction of substrate peptide H-Gly-Arg-AMC, and release AMC to generate fluorescence. […] The compound was diluted with DMSO to a 384-well echo plate at a concentration of 100× of the highest concentration at the beginning of the experiment. 0.2 μL of the diluted compound was pipetted to a black-bottomed 384-well reaction plate for later use. The negative control well was DMSO. • 2) Activation of rhCatC: RhCatC and rhCatL were added to the activation buffer to obtain a final concentration of rhCatC of 100 μg/mL and a final concentration of rhCatL of 20 μg/mL, and incubated at room temperature for 1 hour. • 3) Enzyme activity reaction: Activated rhCatC was diluted to 0.4 μg/mL with the reaction buffer. The solution was added to the black-bottom 384-well reaction plate ([…]). 10 μL of the buffer was added for the vehicle control group. The plate containing compounds in its wells was incubated at room temperature for 30 minutes.
The RLU data was read, the inhibition rate was calculated, and the IC50 value was calculated according to the fitting curve of concentration and inhibition rate.

[5] = target: CatC (Homo sapiens (Human), UniProt P53634); assay: In vitro CatC cell activity experiment in U937 cell line; assay type: cell-based
CatC, sequence (P53634 25-134): as the sequence (P53634 25-134) above
CatC, sequence (P53634 231-394): as the sequence (P53634 231-394) above
CatC, sequence (P53634 395-463): as the sequence (P53634 395-463) above
Description: The U937 cell line was resuscitated and passed for about two generations, and the cell line with good growth status was selected. The cell suspension was transferred into a centrifuge tube, and centrifuged at 800 to 1000 rpm for 3 to 5 minutes. The supernatant was discarded. An appropriate volume of culture medium was added to the centrifuge tube, which was gently pipetted to resuspend the cells evenly. The cells were counted using a Vi-Cell XR cell counter. The cell suspension was adjusted to an appropriate concentration. The cell suspension was added into a 384-well plate ([…]). The compound was formulated into a 10 mM solution with DMSO. The compound was diluted with DMSO to obtain a 1 mM solution, and a semi-logarithmi dilution was carried out by HPD300 with DMSO to obtain 10 concentrations. Gly-Phe-AFC was formulated into a 35 mM solution with DMSO and divided. […] After adding the compounds and incubating for 1 hour in an incubator, substrate-AFC was added (12.5 μL was added to the plate). The plate was incubated for 30 minutes and read. […] XLFit was used to draw the drug efficacy inhibition rate curve and calculate the IC50 value. 4-parameter model [fit=(A+((B−A)/(1+((C/x)^D))))] was used.

[6] = U937 cells, CatC cell activity, read-out: Biological activity IC50

Compound	AUC(0-t) ([1]; IV, 2 mg/kg)	clearance ([1]; IV, 2 mg/kg)	half-life ([1]; IV, 2 mg/kg)	Vd ([1]; IV, 2 mg/kg)	AUC(0-t) ([1]; PO, 5 mg/kg)	Tmax ([1]; PO, 5 mg/kg)	bioavailability ([1]; PO, 5 mg/kg)	half-life ([1]; PO, 5 mg/kg)	AUC(0-t) ([2]; male, dog, plasma, IV, 1 mg/kg)	half-life ([2]; male, dog, plasma, IV, 1 mg/kg)	Vd ([2]; male, dog, plasma, IV, 1 mg/kg)	AUC(0-t) ([2]; male, dog, plasma, PO, 2 mg/kg)	Tmax ([2]; male, dog, plasma, PO, 2 mg/kg)	bioavailability ([2]; male, dog, plasma, PO, 2 mg/kg)	half-life ([2]; male, dog, plasma, PO, 2 mg/kg)	inhibitory rate of NE protease activity compared with AZD7986 [3]	IC50 [4]	IC50 [5]	IC50 [5, 6]	also measured
Cn1c(=O)oc2ccc(-c3ccc(C[C@@H](C#N)NC(=O)[C@@H]4CNCCCO4)cc3)cc21 [AZD7986, reference compound]	2120 ng·h/mL	15.1 mL/min/kg	2.74 h	2.34 L/kg	2130 ng·h/mL	1.5 h	40.2%	3.18 h	1410 ng·h/mL	13.5 h	9.26 L/kg	3670 ng·h/mL	1.67 h	104%	15.3 h					
N#Cc1ccc2c(c1)COc1cc(C[C@@H](C#N)NC(=O)[C@@H]3CNCCCO3)c(F)cc1-2 [Compound 14, (S)—N—((S)-1-Cyano-2-(8-cyano-2-fluoro-6H-benzo[c]chromen-3-yl)ethyl)-1,4-oxazepane-2-carboxamide]	3770 ng·h/mL	8.49 mL/min/kg	3.08 h	1.75 L/kg	6610 ng·h/mL	0.5 h	65.3%	2.69 h	4790 ng·h/mL	10.2 h	2.29 L/kg	10900 ng·h/mL	3.33 h	100%	12.3 h	higher inhibitory rate of NE protease activity than the reference compound AZD7986	5.31 nM	6.1 nM		PK properties compared with AZD7986 [1]: better PK properties than AZD7986; oral bioavailability compared with AZD7986 [1]: increased; decrease of clearance rate compared with AZD7986 ([1]; IV): about 1.8 times; increase of intravenous exposure compared with AZD7986 ([1]; IV): 1.8 times; increase of oral exposure compared with AZD7986 ([1]; PO): 3.1 times; PK properties compared with AZD7986 [2]: better PK properties than AZD7986; decrease of clearance rate compared with AZD7986 ([2]; IV): about 3 times; increase of intravenous exposure compared with AZD7986 ([2]; IV): 3.4 times; increase of oral exposure compared with AZD7986 ([2]; PO): 3.0 times; clearance ([2]; male, dog, plasma, IV, 1 mg/kg): 0.172
N#Cc1ccc2c(c1)-c1cc(F)c(C[C@@H](C#N)NC(=O)[C@@H]3CNCCCO3)cc1OC2 [Compound 32, (S)—N—((S)-1-Cyano-2-(9-cyano-2-fluoro-6H-benzo[c]chromen-3-yl)ethyl)-1,4-oxazepane-2-carboxamide]																higher inhibitory rate of NE protease activity than the reference compound AZD7986	13 nM	7 nM		
N#CC(Cc1ccc2c(c1)COCc1cc(F)ccc1-2)NC(=O)C1(N)CCOCC1 (stereo not shown) [Compound 37, 4-Amino-N-(1-cyano-2-(9-fluoro-5,7-dihydrodibenzo[c,e]oxepin-3-yl)ethyl)tetrahydro-2H-pyran-4-carboxamide]																	14 nM		8.6 nM	
CN1Cc2cc(F)ccc2-c2ccc(C[C@@H](C#N)NC(=O)C3(N)CCOCC3)cc2C1=O [Compound 40, (S)-4-Amino-N-(1-cyano-2-(9-fluoro-6-methyl-5-oxo-6,7-dihydro-5H-dibenzo[c,e]azepin-3-yl)ethyl)tetrahydro-2H-pyran-4-carboxamide]																	3.7 nM		10.3 nM	
CN1Cc2cc(C#N)ccc2-c2cc(F)c(C[C@@H](C#N)NC(=O)[C@@H]3CNCCCO3)cc2C1=O [Compound 41, (S)—N—((S)-1-Cyano-2-(9-cyano-2-fluoro-6-methyl-5-oxo-6,7-dihydro-5H-dibenzo[c,e]azepin-3-yl)ethyl)-1,4-oxazepane-2-carboxamide]																	30.5 nM		117 nM	
